Data as given in patent publication US20030100024A1, “Method and apparatus for high throughput cell-based assays for screening and diagnostics” (priority 2000, published 2003).

System: PC12 cells
Test: neurite outgrowth from PC12 cells measured by laser scanning line amplitudes
Assay type: cell-based
Settings: NGF added, after six days, FIG. 5
Text: The method of the invention was applied to the measurement of neurite outgrowth from PC12 cells. The neurites are much smaller than the cells and the laser beam, being only one micron in diameter in some cases. […] The extent of differentiation can be measured by considering the characteristic gaussian fit, multi-peaks ratio, sample width and number of inflections of the line amplitudes of the two populations. Any combination of these measurements from the line amplitudes may be used as a quantitative measure of differentiation.
If the line-to-line spacing of the scan is sufficiently small it is also possible to produce a representation of each cell in 3D (FIG. 6). This provides confirmation of the ability of the method to characterise differentiation.

Substance: nerve growth factor [NGF]
- differentiation (neurite outgrowth) of the cell population: the majority differentiated with neurite outgrowths
